Test results as given in patent US20180333538A1, “INJECTION APPARATUS” (Daicel Corporation, priority 2015, published 2018).
Like-named read-outs stand apart in the source and are kept apart here.

Test system: intradermal layer which is skin tissue of the rabbit in vivo
Conditions: 100 μl intradermal
Experimental: Moreover, an object of the following experimental conditions is to confirm, when an inflammatory substance is injected to the intradermal layer which is skin tissue of the rabbit in vivo, a presence or absence of an inflammatory response (formation of erythema and eschar, and formation of edema) for each elapsed time (after 24 hours, 48 hours, and 72 hours) . In addition, the injection of an injection solution with the needled injector was performed at a constant pressurization rate.
16-week-old male Std: JW/CSK rabbit, already shaved and smooth skin-verified, was used.
An aqueous solution of the following inflammatory substance was used as the dosing liquid and the injection solution.
Inflammatory substance: acetic acid, diluted to a predetermined concentration with distilled water, dose 100 μl
Definitions of numerical values representing the experimental results in the tables with respect to each of erythema and eschar formation and edema formation are as follows.
1 Very slight erythema (barely perceptible erythema)
2 Slight erythema (clearly perceptible erythema)
3 Moderate to severe erythema
4 Severe erythema to eschar formations
1 Very slight edema (barely perceptible edema)
2 Slight edema (edema with edges perceptible due to definite raising)
3 Moderate edema (raised approximately 1 mm)
4 Severe edema (raised 1 mm or more and extending beyond the area of exposure)

[1] = Comparative example (needled injector), acetic acid 0.25%, 24 h
[2] = Comparative example (needled injector), acetic acid 0.25%, 48 h
[3] = Comparative example (needled injector), acetic acid 0.25%, 72 h
[4] = Comparative example (needled injector), acetic acid 0.5%, 24 h
[5] = Comparative example (needled injector), acetic acid 0.5%, 48 h
[6] = Comparative example (needled injector), acetic acid 0.5%, 72 h
[7] = Comparative example (needled injector), acetic acid 1.0%, 24 h
[8] = Comparative example (needled injector), acetic acid 1.0%, 48 h
[9] = Comparative example (needled injector), acetic acid 1.0%, 72 h
[10] = Comparative example (needled injector), acetic acid 1.5%, 24 h
[11] = Comparative example (needled injector), acetic acid 1.5%, 48 h
[12] = Comparative example (needled injector), acetic acid 1.5%, 72 h
[13] = Comparative example (needled injector), acetic acid 2.0%, 24 h
[14] = Comparative example (needled injector), acetic acid 2.0%, 48 h
[15] = Comparative example (needled injector), acetic acid 2.0%, 72 h
[16] = Injector 1, acetic acid 0.25%, 24 h
[17] = Injector 1, acetic acid 0.25%, 48 h
[18] = Injector 1, acetic acid 0.25%, 72 h
[19] = Injector 1, acetic acid 0.5%, 24 h
[20] = Injector 1, acetic acid 0.5%, 48 h
[21] = Injector 1, acetic acid 0.5%, 72 h
[22] = Injector 1, acetic acid 1.0%, 24 h
[23] = Injector 1, acetic acid 1.0%, 48 h
[24] = Injector 1, acetic acid 1.0%, 72 h
[25] = Injector 1, acetic acid 1.5%, 24 h
[26] = Injector 1, acetic acid 1.5%, 48 h
[27] = Injector 1, acetic acid 1.5%, 72 h
[28] = Injector 1, acetic acid 2.0%, 24 h
[29] = Injector 1, acetic acid 2.0%, 48 h
[30] = Injector 1, acetic acid 2.0%, 72 h

CC(=O)O [Acetic acid, acetic acid]
Edema [1]: 0 | Erythema etc. [1]: 1 | Edema [2]: 0 | Erythema etc. [2]: 1 | Edema [3]: 0 | Erythema etc. [3]: 1 | Edema [4]: 0 | Erythema etc. [4]: 1 | Edema [5]: 0 | Erythema etc. [5]: 1 | Edema [6]: 0 | Erythema etc. [6]: 1 | Edema [7]: 1 | Erythema etc. [7]: 1 | Edema [8]: 1 | Erythema etc. [8]: 1 | Edema [9]: 1 | Erythema etc. [9]: 1 | Edema [10]: 2 | Erythema etc. [10]: 1 | Edema [11]: 2 | Erythema etc. [11]: 1 | Edema [12]: 2 | Erythema etc. [12]: 1 | Edema [13]: 3 | Erythema etc. [13]: 1 | Edema [14]: 3 | Erythema etc. [14]: 1 | Edema [15]: 2 | Erythema etc. [15]: 1 | Edema [16]: 0 | Erythema etc. [16]: 1 | Edema [17]: 0 | Erythema etc. [17]: 1 | Edema [18]: 0 | Erythema etc. [18]: 1 | Edema [19]: 0 | Erythema etc. [19]: 1 | Edema [20]: 0 | Erythema etc. [20]: 1 | Edema [21]: 0 | Erythema etc. [21]: 1 | Edema [22]: 0 | Erythema etc. [22]: 1 | Edema [23]: 0 | Erythema etc. [23]: 1 | Edema [24]: 0 | Erythema etc. [24]: 1 | Edema [25]: 0 | Erythema etc. [25]: 1 | Edema [26]: 0 | Erythema etc. [26]: 1 | Edema [27]: 0 | Erythema etc. [27]: 1 | Edema [28]: 1 | Erythema etc. [28]: 1 | Edema [29]: 1 | Erythema etc. [29]: 1 | Edema [30]: 1 | Erythema etc. [30]: 1
